Assay results: patent publication US20260285850A1, “SUBSTITUTED OXAZOLIDINONES AND IMIDAZOLINONES AS HERBICIDES” (FMC CORPORATION, priority 2023, published 2026)

Columns and labels:
Format in all cases: in vivo
[1] = tested on: oat, wild (wild oat, Avena fatua); test: Test A postemergence application, visual injury rating 0-100; details: 10 days
Source text: (§1) Seeds of plant species selected from barnyardgrass (Echinochloa crus-galli), blackgrass (Alopecurus myosuroides), corn (Zea mays), foxtail, giant (giant foxtail, Setaria faberi), green foxtail (Setaria viridis), goosegrass (Eleusine indica), kochia (Bassia scoparia), oat, wild (wild oat, Avena fatua), palmer (palmer amaranth, palmer pigweed, Amaranthus palmeri), ragweed (common ragweed, Ambrosia artemisiifolia), ryegrass, Italian (italian ryegrass, Lolium multiflorum), soybean (Glycine max) and wheat (Triticum aestivum) were planted into a blend of loam soil and sand and treated preemergence with a directed soil spray using test chemicals formulated in a non-phytotoxic solvent mixture which included a surfactant.
(§2) At the same time, plants selected from these crops and weed species and also galium (catchweed bedstraw, Galium aparine) and horseweed (Erigeron canadensis) were planted in pots containing the same blend of loam soil and sand and treated with postemergence applications of test chemicals formulated in the same manner. Plants ranged in height from 2 to 10 cm and were in the one- to two-leaf stage for the postemergence treatment. Treated plants and untreated controls were maintained in a greenhouse for 10 days, after which time all treated plants were compared to untreated controls and visually evaluated for injury. Plant response ratings, summarized in Table A, are based on a 0 to 100 scale where 0 is no effect and 100 is complete control. A dash (-) response means no test result.

[2] = tested on: ryegrass, Italian (italian ryegrass, Lolium multiflorum); test: as above; details: 10 days
Source text: as §1, §2

[3] = tested on: wheat (Triticum aestivum); test: as above; details: 10 days
Source text: as §1, §2

[4] = tested on: horseweed (Erigeron canadensis); test: as above; details: 10 days
Source text: as §1, §2

[5] = tested on: green foxtail (Setaria viridis); test: as above; details: 10 days
Source text: as §1, §2

[6] = tested on: ragweed (common ragweed, Ambrosia artemisiifolia); test: as above; details: 10 days
Source text: as §1, §2

[7] = tested on: palmer (palmer amaranth, palmer pigweed, Amaranthus palmeri); test: as above; details: 10 days
Source text: as §1, §2

corn (Zea mays) [8] = test: as above; details: 10 days
Source text: as §1, §2

[9] = tested on: barnyardgrass (Echinochloa crus-galli); test: as above; details: 10 days
Source text: as §1, §2

soybean (Glycine max) [10] = test: as above; details: 10 days
Source text: as §1, §2

[11] = tested on: blackgrass (Alopecurus myosuroides); test: as above; details: 10 days
Source text: as §1, §2

kochia (Bassia scoparia) [12] = test: as above; details: 10 days
Source text: as §1, §2

[13] = tested on: oat, wild (wild oat, Avena fatua); test: Test A preemergence soil spray, visual injury rating 0-100; details: 10 days, 0 = no effect, 100 = complete control
Source text: as §1, §2

[14] = tested on: ryegrass, Italian (italian ryegrass, Lolium multiflorum); test: as above; details: 10 days, 0 = no effect, 100 = complete control
Source text: as §1, §2

[15] = tested on: wheat (Triticum aestivum); test: as above; details: 10 days, 0 = no effect, 100 = complete control
Source text: as §1, §2

[16] = tested on: green foxtail (Setaria viridis); test: as above; details: 10 days, 0 = no effect, 100 = complete control
Source text: as §1, §2

[17] = tested on: ragweed (common ragweed, Ambrosia artemisiifolia); test: as above; details: 10 days, 0 = no effect, 100 = complete control
Source text: as §1, §2

[18] = tested on: palmer (palmer amaranth, palmer pigweed, Amaranthus palmeri); test: as above; details: 10 days, 0 = no effect, 100 = complete control
Source text: as §1, §2

corn (Zea mays) [19] = test: as above; details: 10 days, 0 = no effect, 100 = complete control
Source text: as §1, §2

[20] = tested on: barnyardgrass (Echinochloa crus-galli); test: as above; details: 10 days, 0 = no effect, 100 = complete control
Source text: as §1, §2

soybean (Glycine max) [21] = test: as above; details: 10 days, 0 = no effect, 100 = complete control
Source text: as §1, §2

[22] = tested on: blackgrass (Alopecurus myosuroides); test: as above; details: 10 days, 0 = no effect, 100 = complete control
Source text: as §1, §2

kochia (Bassia scoparia) [23] = test: as above; details: 10 days, 0 = no effect, 100 = complete control
Source text: as §1, §2

[24] = 31 g ai/ha, postemergence, 0 = no effect, 100 = complete control
[25] = Postemergence, 125 g ai/ha, 0 is no effect, 100 is complete control

CONC(=O)C1CC(NC(=O)C2(C)CN(c3cc(F)cc(F)c3)C(=O)O2)CO1 (stereo not shown) [Compound 41]
Oat, Wild plant response rating (0-100) [1, 24]: 10
Oat, Wild plant response rating (0 to 100 scale) [1, 25]: 40
Ryegrass, Italian plant response rating (0-100) [2, 24]: 0
Ryegrass, Italian plant response rating (0 to 100 scale) [2, 25]: 50
Wheat plant response rating (0-100) [3, 24]: 20
Wheat plant response rating (0 to 100 scale) [3, 25]: 80
Horseweed plant response rating (0-100) [4, 24]: 0
Horseweed plant response rating (0 to 100 scale) [4, 25]: 0
Foxtail, Green plant response rating (0-100) [5, 24]: 20
Foxtail, Green plant response rating (0 to 100 scale) [5, 25]: 30
Ragweed plant response rating (0-100) [6, 24]: 0
Ragweed plant response rating (0 to 100 scale) [6, 25]: 0
Amaranth, Palmer plant response rating (0-100) [7, 24]: 0
Amaranth, Palmer / Pigweed, Palmer plant response rating (0 to 100 scale) [7, 25]: 0
Corn plant response rating (0-100) (corn (Zea mays) [8]; [24]): 0
Corn plant response rating (0 to 100 scale) (corn (Zea mays) [8]; [25]): 0
Barnyardgrass plant response rating (0-100) [9, 24]: 0
Barnyardgrass plant response rating (0 to 100 scale) [9, 25]: 30
Soybean plant response rating (0-100) (soybean (Glycine max) [10]; [24]): 0
Soybean plant response rating (0 to 100 scale) (soybean (Glycine max) [10]; [25]): 0
Blackgrass plant response rating (0-100) [11, 24]: 0
Blackgrass plant response rating (0 to 100 scale) [11, 25]: 90
Kochia plant response rating (0-100) (kochia (Bassia scoparia) [12]; [24]): 0
Kochia plant response rating (0 to 100 scale) (kochia (Bassia scoparia) [12]; [25]): 0
Oat, Wild plant response rating (0-100) ([13]; 31 g ai/ha): 0
Oat, Wild plant response rating (0 to 100 scale) ([13]; 125 g ai/ha): 0
Ryegrass, Italian plant response rating (0-100) ([14]; 31 g ai/ha): 0
Ryegrass, Italian plant response rating (0 to 100 scale) ([14]; 125 g ai/ha): 0
Wheat plant response rating (0-100) ([15]; 31 g ai/ha): 0
Wheat plant response rating (0 to 100 scale) ([15]; 125 g ai/ha): 0
Foxtail, Green plant response rating (0-100) ([16]; 31 g ai/ha): 0
Foxtail, Green plant response rating (0 to 100 scale) ([16]; 125 g ai/ha): 0
Ragweed plant response rating (0-100) ([17]; 31 g ai/ha): 0
Ragweed plant response rating (0 to 100 scale) ([17]; 125 g ai/ha): 0
Amaranth, Palmer plant response rating (0-100) ([18]; 31 g ai/ha): 0
Amaranth, Palmer plant response rating (0 to 100 scale) ([18]; 125 g ai/ha): 0
Corn plant response rating (0-100) (corn (Zea mays) [19]; 31 g ai/ha): 0
Corn plant response rating (0 to 100 scale) (corn (Zea mays) [19]; 125 g ai/ha): 0
Barnyardgrass plant response rating (0-100) ([20]; 31 g ai/ha): 0
Barnyardgrass plant response rating (0 to 100 scale) ([20]; 125 g ai/ha): 0
Soybean plant response rating (0-100) (soybean (Glycine max) [21]; 31 g ai/ha): 0
Soybean plant response rating (0 to 100 scale) (soybean (Glycine max) [21]; 125 g ai/ha): 0
Blackgrass plant response rating (0-100) ([22]; 31 g ai/ha): 0
Blackgrass plant response rating (0 to 100 scale) ([22]; 125 g ai/ha): 0
Kochia plant response rating (0-100) (kochia (Bassia scoparia) [23]; 31 g ai/ha): 0
Kochia plant response rating (0 to 100 scale) (kochia (Bassia scoparia) [23]; 125 g ai/ha): 0
